According to patent US20100160445A1, “Synergistic Mixtures of OPP and DGH” (priority 2002, published 2010):

What was measured:
[1] = tested on: mixed inoculum of bacteria; test: MIC and synergy (K) in nutrient broth, microtiter plates; format: cell-based
Procedure: Stock solutions of each product were prepared in sterile distilled water. Synergism was measured by the method first described by F. C. Kull, P. C. Eisman, H. D. Sylwestrowicz and R. L. Mayer in Applied Microbiology, 9, 538-41 ([…]). This manner of determining synergism has been widely used and is industrially acceptable. It is believed that the specified method is sufficient in explaining the process. However for a further description, reference can be made to U.S. Pat. No. 3,231,509 and its file history, where this type of data was considered acceptable.
• 1. Incubator capable of maintaining a variable temperature range (25-45 C) • 2. Samples of each biocide or test compound to be examined • 3. Microtiter plates—96 well with lid, sterile. • 4. 8-12 channel micropipetting device capable of pipetting 0-250 ul volumes • 5. Micropipette tips capable of holding up to 250 ul volumes • 6. Sterile microbiological culture broth. Trypticase Soy Broth (TSB) or Nutrient Broth (NB) is recommended for bacteria and Sabouraud Maltose Broth (SMB) or Sabouraud Dextrose Broth (SDB) is recommended for yeasts and molds. In the case of this particular study the microbiological culture medium was Nutrient Broth at pH 7.0, 8.0 and 9.0. • 7. Pure cultures of microorganisms of choice grown on appropriate agar medium • 8. Sterile distilled water • 9. 100 mL volumetric flasks (one for each biocide to be tested) • 10. Sterile 10 mL tubes of Phosphate buffer (Butterfield's buffer pH 7.2+/−0.2). Contains purified water, monobasic potassium phosphate and sodium hydroxide for pH adjustment. • 11. Sterile cotton swabs • 12. 0.5 MacFarland Turbidity Standard
The day before testing, perform a streak plate of each organism to be tested on an appropriate agar medium (Trypticase Soy Agar). Organisms tested in this study were: Wild strain bacteria isolated from previously contaminated industrial systems and which were identified as: Pseudomonas sp., Escherchia coli , Enterobacter sp., Alcaligenes sp. and Alcaligenes faecalis. On the day of the test, use a sterile cotton swab to harvest some of the growth. Place swab into a tube containing 10 mL sterile phosphate buffer. Compare and adjust the turbidity of the organisms in the tube to 1×10^8 cfu/mL using a 0.5 MacFarland Turbidity Standard. Dilute the 10 mL tube into 90 mL of sterile 2× nutrient broth at pH 7.0, 8.0 and 9.0.
1. Design the layout of the microtiter plates based on the number of organisms to test and the number of biocides and desired concentrations to test. A separate microtiter plate is required for testing each biocide alone, in addition to the combination microtiter plate. 2. Prepare a working stock solution of each biocide to be tested. For the combination microtiter plate, the working stock solution of Biocide A will be 8× the concentration desired in the first well of the combination microtiter plate. The working stock solution of Biocide B will be 4× the concentration desired in the first well of the combination microtiter plate. For the alone microtiter plates, the working stock solutions of Biocide A and Biocide B will both be 4× the concentration desired in the first well of the single biocide microtiter plates.
Dodecylguanidine hydrochloride: (For combination plates) A solution of this product which is 35% active, was made as follows: […]=8000 ppm active=8000/0.35=22,857 ppm, 2.28 g into 100 mL sterile diH2O. Levels to test are: 1000 ppm, 500 ppm, 250 ppm, 125 ppm, 62.5 ppm, 31.2 ppm, 15.6 ppm, 7.8 ppm, 3.9 ppm, 1.95 ppm
Ortho-PhenylPhenol: (For combination plates) Make a solution of this product which is 99% active, 4×125=500 ppm active=500/0.99=505 ppm, 0.05 g into 100 mL MeOH and sterile diH2O. Level to test is 125 ppm.
3. Place 50 ul of sterile distilled water in all of the rows in columns 1 through 10, and 100 ul of sterile distilled water in all of the rows in columns 11 and 12 of the 96 well combination microtiter plate. […]

[2] = tested on: wild strain bacteria isolated from previously contaminated systems; test: In-Can Preservation Test of paint samples; format: cell-based; details: for Effective Preservative (ppm): two inoculation challenge; on Microbial growth, 1st Inoculation, 1st sub-column: key: 4 = Heavy Microbial Growth; 3 = Moderate Microbial Growth; 2 = Slight Microbial Growth; 1 = Trace Microbial Growth; 0 = No Microbial Growth; on Microbial growth, 1st Inoculation, 2nd sub-column: key: 4 = Heavy Microbial Growth; 3 = Moderate Microbial Growth; 2 = Slight Microbial Growth; 1 = Trace Microbial Growth; 0 = No Microbial Growth; on Microbial growth, 2nd Inoculation, 1st sub-column: key: 4 = Heavy Microbial Growth; 3 = Moderate Microbial Growth; 2 = Slight Microbial Growth; 1 = Trace Microbial Growth; 0 = No Microbial Growth; on Microbial growth, 2nd Inoculation, 2nd sub-column: key: 4 = Heavy Microbial Growth; 3 = Moderate Microbial Growth; 2 = Slight Microbial Growth; 1 = Trace Microbial Growth; 0 = No Microbial Growth
Procedure: Preservation Testing was performed on the three paint samples: Acrylic Flat, Acrylic and Vinyl Acrylic. Each sample was treated with various levels OPP, DGH individually and a mixture of OPP and DGH. All samples were then inoculated with wild strain bacteria isolated from previously contaminated systems. Following the initial inoculation, the samples were reinoculated on day 7. This testing scenario best simulates what happens in a “real world” situation. […]

[3] = Table 2 paint (Acrylic Flat / Vinyl Acrylic Flat), 1000 ppm
[4] = Table 2 paint (Acrylic Flat / Vinyl Acrylic Flat), 1500 ppm
[5] = Table 2 paint (Acrylic Flat / Vinyl Acrylic Flat), 2000 ppm
[6] = Table 2 paint (Acrylic Flat / Vinyl Acrylic Flat), 2500 ppm
[7] = Table 2 paint (Acrylic Flat / Vinyl Acrylic Flat), 3000 ppm
[8] = Table 2 paint (Acrylic Flat / Vinyl Acrylic Flat), 3500 ppm
[9] = Table 2 paint (Acrylic Flat / Vinyl Acrylic Flat), 4000 ppm
[10] = Table 3 paint (Vinyl Acrylic Flat / Acrylic Flat), 1000 ppm
[11] = Table 3 paint (Vinyl Acrylic Flat / Acrylic Flat), 1500 ppm
[12] = Table 3 paint (Vinyl Acrylic Flat / Acrylic Flat), 2000 ppm
[13] = Table 3 paint (Vinyl Acrylic Flat / Acrylic Flat), 2500 ppm
[14] = Table 3 paint (Vinyl Acrylic Flat / Acrylic Flat), 3000 ppm
[15] = Table 3 paint (Vinyl Acrylic Flat / Acrylic Flat), 3500 ppm
[16] = Table 3 paint (Vinyl Acrylic Flat / Acrylic Flat), 4000 ppm

Oc1ccccc1-c1ccccc1 [OPP, Ortho-PhenylPhenol]
MIC ([1]; pH 7, read-out: MIC, biocide alone): > 1000 µg/mL | Synergy Index ([1]; pH 8.0, 1000 ppm NaOPP alone (0:100)): 1.00 | Synergy Index ([1]; pH 9.0, 500 ppm NaOPP alone (0:100)): 1.00 | Effective Preservative (ppm) ([2]; Acrylic Flat paint): >4000 ppm | Microbial growth, 1st Inoculation, 1st sub-column ([2]; Acrylic paint, 1000 ppm): 3 | Microbial growth, 1st Inoculation, 2nd sub-column ([2]; Acrylic paint, 1000 ppm): 3 | Microbial growth, 2nd Inoculation, 1st sub-column ([2]; Acrylic paint, 1000 ppm): 3 | Microbial growth, 2nd Inoculation, 2nd sub-column ([2]; Acrylic paint, 1000 ppm): 3 | Microbial growth, 1st Inoculation, 1st sub-column ([2]; Acrylic paint, 1500 ppm): 3 | Microbial growth, 1st Inoculation, 2nd sub-column ([2]; Acrylic paint, 1500 ppm): 3 | Microbial growth, 2nd Inoculation, 1st sub-column ([2]; Acrylic paint, 1500 ppm): 3 | Microbial growth, 2nd Inoculation, 2nd sub-column ([2]; Acrylic paint, 1500 ppm): 3 | Microbial growth, 1st Inoculation, 1st sub-column ([2]; Acrylic paint, 2000 ppm): 3 | Microbial growth, 1st Inoculation, 2nd sub-column ([2]; Acrylic paint, 2000 ppm): 3 | Microbial growth, 2nd Inoculation, 1st sub-column ([2]; Acrylic paint, 2000 ppm): 3 | Microbial growth, 2nd Inoculation, 2nd sub-column ([2]; Acrylic paint, 2000 ppm): 3 | Microbial growth, 1st Inoculation, 1st sub-column ([2]; Acrylic paint, 2500 ppm): 3 | Microbial growth, 1st Inoculation, 2nd sub-column ([2]; Acrylic paint, 2500 ppm): 3 | Microbial growth, 2nd Inoculation, 1st sub-column ([2]; Acrylic paint, 2500 ppm): 3 | Microbial growth, 2nd Inoculation, 2nd sub-column ([2]; Acrylic paint, 2500 ppm): 3 | Microbial growth, 1st Inoculation, 1st sub-column ([2]; Acrylic paint, 3000 ppm): 3 | Microbial growth, 1st Inoculation, 2nd sub-column ([2]; Acrylic paint, 3000 ppm): 3 | Microbial growth, 2nd Inoculation, 1st sub-column ([2]; Acrylic paint, 3000 ppm): 3 | Microbial growth, 2nd Inoculation, 2nd sub-column ([2]; Acrylic paint, 3000 ppm): 3 | Microbial growth, 1st Inoculation, 1st sub-column ([2]; Acrylic paint, 3500 ppm): 3 | Microbial growth, 1st Inoculation, 2nd sub-column ([2]; Acrylic paint, 3500 ppm): 3 | Microbial growth, 2nd Inoculation, 1st sub-column ([2]; Acrylic paint, 3500 ppm): 3 | Microbial growth, 2nd Inoculation, 2nd sub-column ([2]; Acrylic paint, 3500 ppm): 3 | Microbial growth, 1st Inoculation, 1st sub-column ([2]; Acrylic paint, 4000 ppm): 3 | Microbial growth, 1st Inoculation, 2nd sub-column ([2]; Acrylic paint, 4000 ppm): 3 | Microbial growth, 2nd Inoculation, 1st sub-column ([2]; Acrylic paint, 4000 ppm): 3 | Microbial growth, 2nd Inoculation, 2nd sub-column ([2]; Acrylic paint, 4000 ppm): 3 | Effective Preservative (ppm) ([2]; Acrylic paint): >4000 ppm | Microbial growth, 1st Inoculation, 1st sub-column [2, 3]: 3 | Microbial growth, 1st Inoculation, 2nd sub-column [2, 3]: 3 | Microbial growth, 2nd Inoculation, 1st sub-column [2, 3]: 3 | Microbial growth, 2nd Inoculation, 2nd sub-column [2, 3]: 3 | Microbial growth, 1st Inoculation, 1st sub-column [2, 4]: 3 | Microbial growth, 1st Inoculation, 2nd sub-column [2, 4]: 3 | Microbial growth, 2nd Inoculation, 1st sub-column [2, 4]: 3 | Microbial growth, 2nd Inoculation, 2nd sub-column [2, 4]: 3 | Microbial growth, 1st Inoculation, 1st sub-column [2, 5]: 3 | Microbial growth, 1st Inoculation, 2nd sub-column [2, 5]: 3 | Microbial growth, 2nd Inoculation, 1st sub-column [2, 5]: 3 | Microbial growth, 2nd Inoculation, 2nd sub-column [2, 5]: 3 | Microbial growth, 1st Inoculation, 1st sub-column [2, 6]: 3 | Microbial growth, 1st Inoculation, 2nd sub-column [2, 6]: 3 | Microbial growth, 2nd Inoculation, 1st sub-column [2, 6]: 3 | Microbial growth, 2nd Inoculation, 2nd sub-column [2, 6]: 3 | Microbial growth, 1st Inoculation, 1st sub-column [2, 7]: 3 | Microbial growth, 1st Inoculation, 2nd sub-column [2, 7]: 3 | Microbial growth, 2nd Inoculation, 1st sub-column [2, 7]: 3 | Microbial growth, 2nd Inoculation, 2nd sub-column [2, 7]: 3 | Microbial growth, 1st Inoculation, 1st sub-column [2, 8]: 3 | Microbial growth, 1st Inoculation, 2nd sub-column [2, 8]: 3 | Microbial growth, 2nd Inoculation, 1st sub-column [2, 8]: 3 | Microbial growth, 2nd Inoculation, 2nd sub-column [2, 8]: 3 | Microbial growth, 1st Inoculation, 1st sub-column [2, 9]: 3 | Microbial growth, 1st Inoculation, 2nd sub-column [2, 9]: 3 | Microbial growth, 2nd Inoculation, 1st sub-column [2, 9]: 3 | Microbial growth, 2nd Inoculation, 2nd sub-column [2, 9]: 3 | Microbial growth, 1st Inoculation, 1st sub-column [2, 10]: 2 | Microbial growth, 1st Inoculation, 2nd sub-column [2, 10]: 2 | Microbial growth, 2nd Inoculation, 1st sub-column [2, 10]: 2 | Microbial growth, 2nd Inoculation, 2nd sub-column [2, 10]: 2 | Microbial growth, 1st Inoculation, 1st sub-column [2, 11]: 2 | Microbial growth, 1st Inoculation, 2nd sub-column [2, 11]: 2 | Microbial growth, 2nd Inoculation, 1st sub-column [2, 11]: 2 | Microbial growth, 2nd Inoculation, 2nd sub-column [2, 11]: 2 | Microbial growth, 1st Inoculation, 1st sub-column [2, 12]: 2 | Microbial growth, 1st Inoculation, 2nd sub-column [2, 12]: 2 | Microbial growth, 2nd Inoculation, 1st sub-column [2, 12]: 2 | Microbial growth, 2nd Inoculation, 2nd sub-column [2, 12]: 2 | Microbial growth, 1st Inoculation, 1st sub-column [2, 13]: 2 | Microbial growth, 1st Inoculation, 2nd sub-column [2, 13]: 2 | Microbial growth, 2nd Inoculation, 1st sub-column [2, 13]: 2 | Microbial growth, 2nd Inoculation, 2nd sub-column [2, 13]: 2 | Microbial growth, 1st Inoculation, 1st sub-column [2, 14]: 2 | Microbial growth, 1st Inoculation, 2nd sub-column [2, 14]: 2 | Microbial growth, 2nd Inoculation, 1st sub-column [2, 14]: 2 | Microbial growth, 2nd Inoculation, 2nd sub-column [2, 14]: 2 | Microbial growth, 1st Inoculation, 1st sub-column [2, 15]: 2 | Microbial growth, 1st Inoculation, 2nd sub-column [2, 15]: 1 | Microbial growth, 2nd Inoculation, 1st sub-column [2, 15]: 2 | Microbial growth, 2nd Inoculation, 2nd sub-column [2, 15]: 1 | Microbial growth, 1st Inoculation, 1st sub-column [2, 16]: 2 | Microbial growth, 1st Inoculation, 2nd sub-column [2, 16]: 0 | Microbial growth, 2nd Inoculation, 1st sub-column [2, 16]: 2 | Microbial growth, 2nd Inoculation, 2nd sub-column [2, 16]: 0 | Effective Preservative (ppm) ([2]; Vinyl Acrylic Flat paint): 4000 ppm
